The values below come from US20070270399A1, “New compounds 302” (priority 2006, published 2007).

One data set has as its target T1, human NK2 receptor (Homo sapiens, UniProt P21452).
T1 construct: expressed in transfected cells; host or cells: CHO K1 cells (ATCC), pRc/CMV vector
T1 sequence (P21452 1-398): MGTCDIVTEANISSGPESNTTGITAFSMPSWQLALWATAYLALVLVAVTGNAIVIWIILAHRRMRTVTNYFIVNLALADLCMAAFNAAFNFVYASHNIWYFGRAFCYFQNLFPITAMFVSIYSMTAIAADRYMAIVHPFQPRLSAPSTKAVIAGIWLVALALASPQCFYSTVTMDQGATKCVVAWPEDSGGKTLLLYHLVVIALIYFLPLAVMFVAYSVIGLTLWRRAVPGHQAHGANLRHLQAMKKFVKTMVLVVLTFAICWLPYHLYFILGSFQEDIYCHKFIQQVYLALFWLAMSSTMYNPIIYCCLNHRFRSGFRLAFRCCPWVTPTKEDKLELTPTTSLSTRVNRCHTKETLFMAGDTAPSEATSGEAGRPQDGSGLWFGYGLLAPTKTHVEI
Description: FLIPR assay, inhibition of human NK2 receptor activation (intracellular Ca2+). The class given is cell-based. To be noted: CHO cells with human NK2 receptor, NKA agonist at approx. EC60; pKB converted from IC50. Here is the method: (§1) Chinese Hamster Ovary (CHO) K1 cells (obtained from ATCC) were stably transfected with the human NK2 receptor (hNK2R cDNA in pRc/CMV, Invitrogen) or the human NK3 receptor (hNK3R in pcDNA 3.1/Hygro (+)/IRES/CD8, Invitrogen vector modified at AstraZeneca EST-Bio UK, Alderley Park). The cells were transfected with the cationic lipid reagent LIPOFECTAMINE™ (Invitrogen) and selection was performed with Geneticin (G418, Invitrogen) at 1 mg/ml for the hNK2R transfected cells and with Hygromycin (Invitrogen) at 500 μg/ml for the hNK3R transfected cells. Single cell clones were collected by aid of Fluorescence Activated Cell Sorter (FACS), tested for functionality in a FLIPR assay (see below), expanded in culture and cryopreserved for future use. CHO cells stably transfected with human NK1 receptors originates from AstraZeneca R&D, Wilmington USA. Human NK1 receptor cDNA (obtained from RNA-PCR from lung tissue) was subcloned into pRcCMV (Invitrogen). Transfection was performed by Calcium Phosphate and selection with 1 mg/ml G418. […]
(§2) The activity of a compound of the invention to inhibit NK1/NK2/NK3 receptor activation measured as NK1/NK2/NK3 receptor mediated increase in intracellular Ca^2+ was assessed by the following procedure: […]

A further data set addresses T2, human NK1 receptor (Homo sapiens, UniProt P25103).
T2 construct: expressed in transfected cells; host or cells: CHO cells (AstraZeneca R&D, Wilmington USA), pRcCMV vector
Nature of the data set: FLIPR assay, inhibition of human NK1 receptor activation (intracellular Ca2+). The class given is cell-based. The settings on record: CHO cells with human NK1 receptor, Substance P agonist at approx. EC60; pKB converted from IC50. Here is the method: as §1, §2

For data set [1], the target named is hERG-encoded potassium channel (Homo sapiens, UniProt Q12809). Nature of the data set: Activity against hERG (planar-array-based voltage clamp). The class given is cell-based. Here is the method: The activity of compounds according to formula I against the hERG-encoded potassium channel can be determined according to Kiss L, et al. Assay Drug Dev Technol. 1 (2003), 127-35: “High throughput ion-channel pharmacology: planar-array-based voltage clamp”.
The IC50 values tested as described above were generally greater than 8 μM.

The next data set concerns the target T3, human NK3 receptor (Homo sapiens, UniProt P29371).
T3 construct: expressed in transfected cells; host or cells: CHO K1 cells (ATCC), pcDNA 3.1/Hygro (+)/IRES/CD8 vector
T3 sequence (P29371 1-465): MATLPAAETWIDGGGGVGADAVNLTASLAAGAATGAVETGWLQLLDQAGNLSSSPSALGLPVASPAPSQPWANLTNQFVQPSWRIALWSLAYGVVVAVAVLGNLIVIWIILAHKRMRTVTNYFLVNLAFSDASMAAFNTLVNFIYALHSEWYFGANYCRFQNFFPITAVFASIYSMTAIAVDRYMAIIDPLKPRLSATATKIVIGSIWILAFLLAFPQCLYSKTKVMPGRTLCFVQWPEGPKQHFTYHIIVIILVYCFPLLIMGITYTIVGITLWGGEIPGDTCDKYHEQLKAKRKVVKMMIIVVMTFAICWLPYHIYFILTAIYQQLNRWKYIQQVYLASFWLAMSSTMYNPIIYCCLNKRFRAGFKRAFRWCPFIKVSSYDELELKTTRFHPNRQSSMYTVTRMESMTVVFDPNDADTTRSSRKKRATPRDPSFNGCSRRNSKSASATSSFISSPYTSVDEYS
Description: FLIPR assay, inhibition of human NK3 receptor activation (intracellular Ca2+). It is filed as cell-based. The settings on record: CHO cells with human NK3 receptor, Pro-7-NKB agonist at approx. EC60; pKB converted from IC50. As for the experimental part: as §1, §2

The nature of data set [2]: Metabolic stability in liver microsomes (intrinsic clearance). It is filed as in vitro ADME. The settings on record: human, pH 7.4, 37° C., read-out: CLint (HLM). As for the experimental part: The metabolic stability of compounds according to formula I can be determined as described below: […]
The rate of biotransformation can be measured as either metabolite(s) formation or the rate of disappearance of the parent compound. The experimental design involves incubation of low concentrations of substrate (usually 1.0 μM) with liver microsomes (usually 0.5 mg/ml) and taking out aliquotes at varying time points (usually 0, 5, 10, 15, 20, 30, 40 min.). The test compound is usually dissolved in DMSO. The DMSO concentration in the incubation mixture is usually 0.1% or less since more solvent can drastically reduce the activities of some CYP450s. Incubations are done in 100 mM potassium phosphate buffer, pH 7.4 and at 37° C. Acetonitrile or methanol is used to stop the reaction. The parent compound is analysed by HPLC-MS. From the calculated half-life, t1/2, the intrinsic clearance, Clint, is estimated by taking microsomal protein concentration and liver weight into account.

In the next data set the target is CYP3A4 (Homo sapiens, UniProt P08684). Nature of the data set: CYP3A4 inhibition according to Bapiro et al. The class given is in vitro ADME. Here is the method: The IC50 values tested according to Bapiro et al; Drug Metab. Dispos. 29, 30-35 (2001) were generally greater than 50 μM.

Where only a bound is given, the exact number is not on record here.

T2 sequence (P25103 whole entry): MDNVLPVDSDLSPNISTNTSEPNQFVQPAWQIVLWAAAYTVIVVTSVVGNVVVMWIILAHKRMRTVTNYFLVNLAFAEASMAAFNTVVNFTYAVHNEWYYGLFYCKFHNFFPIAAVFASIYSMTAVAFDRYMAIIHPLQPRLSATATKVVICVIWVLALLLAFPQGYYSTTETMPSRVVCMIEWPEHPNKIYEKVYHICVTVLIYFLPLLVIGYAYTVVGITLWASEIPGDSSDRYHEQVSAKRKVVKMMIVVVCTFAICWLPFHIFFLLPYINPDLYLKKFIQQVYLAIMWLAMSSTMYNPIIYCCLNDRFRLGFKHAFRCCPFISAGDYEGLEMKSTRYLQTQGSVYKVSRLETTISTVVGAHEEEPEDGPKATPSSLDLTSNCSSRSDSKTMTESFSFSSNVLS
CYP3A4, sequence (P08684 whole entry): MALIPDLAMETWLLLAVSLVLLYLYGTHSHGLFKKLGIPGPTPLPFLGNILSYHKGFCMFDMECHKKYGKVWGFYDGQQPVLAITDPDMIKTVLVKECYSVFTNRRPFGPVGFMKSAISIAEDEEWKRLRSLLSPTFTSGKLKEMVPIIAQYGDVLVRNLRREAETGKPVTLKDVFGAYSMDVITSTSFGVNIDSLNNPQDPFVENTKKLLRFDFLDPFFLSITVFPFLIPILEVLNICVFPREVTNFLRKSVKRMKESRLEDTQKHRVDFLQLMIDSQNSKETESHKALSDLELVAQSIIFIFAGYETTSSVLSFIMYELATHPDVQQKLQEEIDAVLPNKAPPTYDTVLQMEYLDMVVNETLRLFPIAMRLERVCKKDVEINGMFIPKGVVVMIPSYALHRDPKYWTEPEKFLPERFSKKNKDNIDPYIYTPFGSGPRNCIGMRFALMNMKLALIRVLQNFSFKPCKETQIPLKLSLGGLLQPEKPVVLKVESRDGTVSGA
hERG-encoded potassium channel, sequence (Q12809 whole entry): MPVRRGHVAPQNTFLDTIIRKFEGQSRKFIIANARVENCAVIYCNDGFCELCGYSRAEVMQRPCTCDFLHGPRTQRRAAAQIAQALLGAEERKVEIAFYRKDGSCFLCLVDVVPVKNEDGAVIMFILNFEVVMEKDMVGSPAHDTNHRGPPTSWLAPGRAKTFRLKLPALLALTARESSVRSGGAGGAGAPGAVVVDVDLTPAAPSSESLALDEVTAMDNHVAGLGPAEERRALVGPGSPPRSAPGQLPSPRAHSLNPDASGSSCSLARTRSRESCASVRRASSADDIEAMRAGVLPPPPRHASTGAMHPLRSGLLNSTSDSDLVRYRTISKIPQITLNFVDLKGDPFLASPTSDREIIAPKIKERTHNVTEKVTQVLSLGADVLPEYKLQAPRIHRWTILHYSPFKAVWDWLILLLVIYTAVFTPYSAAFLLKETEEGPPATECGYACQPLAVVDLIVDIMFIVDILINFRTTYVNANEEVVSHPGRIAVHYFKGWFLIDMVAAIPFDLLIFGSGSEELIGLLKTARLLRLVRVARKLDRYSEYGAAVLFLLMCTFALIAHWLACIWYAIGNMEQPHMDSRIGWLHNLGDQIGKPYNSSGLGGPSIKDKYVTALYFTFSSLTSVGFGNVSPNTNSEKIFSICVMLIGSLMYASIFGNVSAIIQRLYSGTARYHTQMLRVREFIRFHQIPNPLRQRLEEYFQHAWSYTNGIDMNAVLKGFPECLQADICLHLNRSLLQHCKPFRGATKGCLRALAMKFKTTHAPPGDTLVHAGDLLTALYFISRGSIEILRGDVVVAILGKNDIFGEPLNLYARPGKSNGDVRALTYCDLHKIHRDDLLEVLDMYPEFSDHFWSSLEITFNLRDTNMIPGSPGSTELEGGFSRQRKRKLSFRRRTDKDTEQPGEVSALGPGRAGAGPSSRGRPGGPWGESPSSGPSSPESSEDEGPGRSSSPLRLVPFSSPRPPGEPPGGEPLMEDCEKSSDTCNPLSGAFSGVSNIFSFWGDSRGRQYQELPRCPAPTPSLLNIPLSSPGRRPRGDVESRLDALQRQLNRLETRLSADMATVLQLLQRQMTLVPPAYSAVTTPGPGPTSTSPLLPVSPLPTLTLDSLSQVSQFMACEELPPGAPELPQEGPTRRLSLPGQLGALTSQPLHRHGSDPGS

For the compound `CN(C[C@@H](CCN1CC(N2CCOCC2)C1)c1ccc(F)cc1)C(=O)c1cc(Cl)cc(C(F)(F)F)c1` [Ex1, 3-Chloro-N-[(2S)-2-(4-fluorophenyl)-4-(3-morpholin-4-ylazetidin-1-yl)butyl]-N-methyl-5-(trifluoromethyl)benzamide], the Kb on human NK2 receptor is 50.1 nM; at human NK1 receptor, 25.1 nM; on human NK3 receptor, 126 nM. Also, the IC50 is 8500 nM in data set [1] and over 50000 nM against CYP3A4. Besides, the microsomal CLint at 1 μM in data set [2] came to 39 µL/min/mg.
